The values that follow come from US20250034151A1, “WEE1 INHIBITOR, PREPARATION THEREFOR, AND USE THEREOF” (JIANGSU TASLY DIYI PHARMACEUTICAL CO., LTD., priority 2022, published 2025).

Broadly, the efflux ratio is the permeability from basolateral to apical divided by that in the opposite direction, in the common usage. The term Papp A→B denotes the apparent permeability from the apical to the basolateral side of a cell layer. The term Papp B→A denotes how fast a substance crosses the layer from the basolateral side. As usually defined, the fraction unbound is free concentration divided by total concentration. The low end stands for extensive binding, the high end for weak binding. As a reminder, the AUC(0-t) is the area under the concentration-time curve up to a stated or last time point. High values mean more exposure, low ones less exposure. A word on the Cmax: it is the peak of the concentration-time curve. As a reminder, the MRT is the average time that molecules of a dose stay in the body. As a reminder, the half-life is the time in which the quantity being followed falls by half. Read a low half-life as fast loss.

Data set [1] deals with H1299 cells. Kind of data set: Anti-proliferative effect on H1299 cells by Cell Titer-Glo. Format: cell-based. As to conditions: Homo sapiens, NCI-H1299, 72 h, 3 days, read-out: H1299 (IC50, inhibition of proliferation in vitro). An outline of the steps:
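H1299 cells exposed to compound dilutions for 3 days at 37 °C, 5% CO2, final DMSO 0.2%. Viability read by CellTiter-Glo luminescence, normalised to untreated-cell (max) and medium (min) controls. IC50 from a variable-slope log(inhibitor) vs. response fit.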
(In general: ATP-based viability assays read luminescence as a measure of living cells.)

A short description of data set [2]: Membrane permeability study (Caco-2). Format: in vitro ADME. As to conditions: human; for Papp A→B at 90 min, 10 µM / Papp B→A at 90 min, 10 µM: pH 7.4, Caco-2, 10 μM; for Papp A→B at 90 min, 10 µM: apical to basolateral; for Papp B→A at 90 min, 10 µM: basolateral to apical. The procedure: Caco-2 cells were purchased from the […] (Rockville, MD). The cell culture medium was modified Eagle's medium (MEM) containing 10% inactivated fetal bovine serum and 1% non-essential amino acids.
The cells were incubated for 21-28 days after inoculation for transport experiments and the apparent permeability (Papp) of Lucifer Yellow was used to characterize and verify the compactness of the cell monolayer. […] A 10 μM working solution of the compound to be tested was added to the apical side and basolateral side of Caco-2 and incubated at 37° C. for 90 min. After the incubation, dilute the samples on the apical side and basolateral side, and the concentrations of compounds on the apical and basolateral sides were detected by LC-MS/MS, and the concentrations of the compounds were quantified by standard curve.
(In general: Caco-2 cells form a polarised layer with tight junctions and transporters.)

Data set [3] can be described thus: Plasma protein binding (PPB), equilibrium dialysis. As to conditions: mouse plasma, 5 h dialysis. In kind it is in vitro ADME. The source says:
1. Experimental Procedure
2. Data Processing and Parameter Calculation
In general terms: Equilibrium dialysis compares concentrations on both sides of a semipermeable membrane.

Data set [4] relates to MIA PaCa2 cells. Kind of data set: Anti-proliferative effect on MIA PaCa2 cells by Cell Titer-Glo. Format: cell-based. As to conditions: Homo sapiens, MIA PaCa-2, 72 h, 3 days, read-out: MIA PaCa 2 (IC50, inhibition of proliferation in vitro). An outline of the steps: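 Cells exposed to graded compound concentrations for 3 days at 37° C, 5% CO2, final DMSO 0.2%; viability read by CellTiter-Glo luminescence. Inhibition normalised to untreated cells (max) and medium (min); IC50 fitted by variable-slope log(inhibitor)-response model.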

Data set [5] in a line: Pharmacokinetics on single dose in mice (intravenous and oral). The following applies: for F/%: Oral 10 mg/kg vs Intravenous 1 mg/kg; for AUC(0-t) / Cmax / MRT / half-life: male, ICR, mouse, plasma. In kind it is in vivo, ICR mice. The procedure:
1. Experimental Aim: The present experiment aimed to obtain the pharmacokinetic profile of the subject compounds in ICR mice (both intravenous and oral) 3.1.2 Test System Species: SPF grade male ICR mice Body weight/weekly age: about 30 g 4. […] 4.2 Subjects Given (Route) Intravenous: 1 mg/kg in a volume of 5 mL/kg Gavage: 10 mg/kg in a volume of 10 mL/kg Ultrasound for 5 min before administration 4.3 Subject Preparation (Concentration) Intravenous: 0.2 mg/mL Gavage: 1 mg/mL Fast overnight before administration and feed four hours after administration. […] The blood samples were stored in a refrigerator at or below −20° C. for LC-MS/MS analysis. […] LC-MS/MS Analytical Detection Used 5. Data Processing The samples were detected for drug concentration at each time point by LC-MS/MS. Pharmacokinetic parameters terminal elimination half-life (t1/2), area under the curve (AUC), apparent volume of distribution (Vd), clearance (CL), mean residence time (MRT), and Cmax were calculated using the non-compartmental model of Phoenix WinNonlin 5.2. Bioavailability (F %) was directly from serum concentration results. Mean±standard deviation (X±SD) was used for blood concentration and pharmacokinetic parameters, etc. Specific testing and analytical methods were specified in the form of protocol revisions.

For data set [6], the target named is T1, CYP2B6 (Homo sapiens, UniProt P20813).
T1 sequence (P20813 1-491): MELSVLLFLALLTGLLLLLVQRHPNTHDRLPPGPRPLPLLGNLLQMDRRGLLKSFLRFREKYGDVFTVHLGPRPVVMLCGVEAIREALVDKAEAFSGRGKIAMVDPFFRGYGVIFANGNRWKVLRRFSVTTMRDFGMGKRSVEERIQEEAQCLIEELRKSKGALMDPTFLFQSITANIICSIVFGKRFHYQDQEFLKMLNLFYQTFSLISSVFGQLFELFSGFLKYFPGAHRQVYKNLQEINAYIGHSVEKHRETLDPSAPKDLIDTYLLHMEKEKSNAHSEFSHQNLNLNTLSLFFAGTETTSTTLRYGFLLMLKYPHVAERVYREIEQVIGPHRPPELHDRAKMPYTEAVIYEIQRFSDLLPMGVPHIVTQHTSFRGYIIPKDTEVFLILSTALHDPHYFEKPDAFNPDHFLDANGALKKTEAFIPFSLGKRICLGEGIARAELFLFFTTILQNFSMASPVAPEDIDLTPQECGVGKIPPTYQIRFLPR
The experiment in a line: CYP450 isoform enzymatic inhibition, 2B6. In kind it is in vitro ADME. The following applies: CYP2B6 enzyme, pH 7.4, read-out: CYP inhibiton/% 2B6.

As to `C=CCn1c(=O)c2cnc(Nc3ccc(N4CC5CC(C4)N5C)cc3)nc2n1-c1cccc(C(C)(C)O)n1` [Compound 27], in data set [1], the IC50 fell in the range of 0.1 to 1 µM. Besides, in data set [2] (Caco-2, pH 7.4), the efflux ratio at 90 min, 10 µM turned out to be 17.4. In data set [2], this molecule displayed an apparent permeability from apical to basolateral (Papp A→B) at 90 min, 10 µM of 30.7 nm/s and an apparent permeability from basolateral to apical (Papp B→A) at 90 min, 10 µM of 535 nm/s. The fraction unbound at 5 h, 1 µM in data set [3] was 0.141. Besides, the IC50 in data set [4] fell in the range of 0.1 to 1 µM. The same molecule gave a F/% in data set [5] of 28.6%. In data set [5] (Intravenous, 1 mg/kg), this molecule gave an AUC(0-t) of 0.134 µg·h/mL, a peak concentration (Cmax) of 0.17 µg/mL, a mean residence time (MRT) of 39.6 min and a half-life of 46.8 min. In data set [5] (Oral, 10 mg/kg), this molecule showed an AUC(0-t) of 0.285 µg·h/mL, a maximum concentration (Cmax) of 0.392 µg/mL, a mean residence time (MRT) of 66 min and a half-life of 61.8 min.

Regarding `C=CCn1c(=O)c2cnc(Nc3ccc(N4CCN(C)CC4)cc3)nc2n1-c1cccc(C(C)(C)O)n1` [AZD1775], in data set [1], the IC50 lay within 0.1 to 1 µM. Moreover, in data set [2], the apparent permeability from apical to basolateral (Papp A→B) at 90 min, 10 µM is 156 nm/s and the Papp B→A at 90 min, 10 µM worked out at 398 nm/s. Moreover, the fraction unbound at 5 h, 1 µM in data set [3] is 0.087. Further, the inhibition at 30 min, 10 µM in data set [6] was found to be 17.4%. In addition, the IC50 in data set [4] lay in the range of 0.1 to 1 µM. The same molecule displayed a F/% in data set [5] of 32%. In data set [5] (Intravenous, 1 mg/kg), this molecule gave a Cmax of 0.25 µg/mL and a half-life of 30 min.
